Measured values from publication PMC9090415, “Discovery of small molecule inhibitors of Plasmodium falciparum apicoplast DNA polymerase” (Journal of Enzyme Inhibition and Medicinal Chemistry, 2022).

Biological target: P. falciparum apicoplast DNA polymerase (Pf-apPOL) (Plasmodium falciparum, UniProt Q8ILY1)
Assay: Fluorescence-based high-throughput DNA polymerase assay (molecular beacon), primary screen and dose-response
Format: biochemical
Experimental: The HT assay employs a molecular beacon, a stem-loop DNA template with a Cy3 dye and the Black Hole Quencher on the 3′ and 5′ ends of the DNA, respectively. Pf-apPOL concentration is based on a calculated absorptivity of ε280 = 56750 M^−1 cm^−1. Reactions were carried out at 25 °C, using Corning 3575 […] (well-volume, 20 µL). Assays testing for compound inhibition composed of reaction buffer (pH 7.9 in 50 mM potassium acetate, 20 mM Tris-acetate and 10 mM magnesium acetate), Pf-apPOL (20 nM), DNA substrate (20 nM), dNTPs (6 µM), and compound (10 µM in DMSO). The DNA and nucleotide substrates (dNTPs) were at concentrations of 20 nM and 6 µM, respectively, in the assay. Pf-apPOL was incubated in the reaction buffer with dNTPs and the compound of interest (10 µM, in the assay) at 25 °C for 10 min. The DNA substrate was then added and the reaction was allowed to proceed for 90 min at 25 °C.
Each assay plate contained 16 negative controls (no Pf-apPOL, DMSO present) and 16 positive controls (Pf-apPOL present, no DMSO). The fluorescence of each well was determined using a BioTek Synergy Neo fluorescence plate reader using excitation and emission wavelengths of 555 and 570 nm, respectively.
In the above, Min is the average of fluorescence emission of the negative controls (substrate only), Max the average fluorescence emission from the positive controls (enzyme + substrate), and Test the emission from the assays in the presence of compounds (enzyme + compound + substrates). […] […] The IC50 of each compound was determined using Equation (2): (2) IC50= Vmax/(1+ (I/IC50)^n)
In the above, n measures cooperativity, with n > 1 indicating synergistic binding of more than a single molecule of the compound.
To identify apPOL inhibitors we utilised our previously developed high-throughput DNA polymerase assay. The HT assay is based on a molecular beacon DNA template that forms a stem-loop with a Cy3 dye and the Black Hole Quencher on the 3′ and 5′ ends of the DNA, respectively. DNA polymerase activity extends an annealed primer through the stem region, displacing the fluorophore from the quencher, thereby increasing its fluorescence (Figure 1(A)). The assay accurately recapitulates the kinetic behaviour of apPOL, as measured through more conventional low-throughput gel-based assays. The Z′ factor for the assay described here was 0.9 across all plates (data not shown).
Figure 1. High-throughput screening. (A) The fluorescent-based DNA polymerase assay used to screen the compound libraries. The DNA template strand is a hairpin loop with a primer annealed to the loop. The 3’ end of the primer is 11 bases away from the 6 bp duplex. Strand displacement activity of the DNA polymerase separates the Cy3 dye from the Black hole quencher leading to an increase in fluorescent signal. (B) The high-throughput assay workflow. The DNA polymerase is incubated with […] compound for 10 min prior to addition of the hairpin substrate. The reaction is quenched at 3 different time points and the fluorescent signal is measured and % inhibition is determined using the provided equation.

[1] = DRC-1; concentration 80 (unit not given); 10'
[2] = primary screen value of the 186 hits; unit not given; 90 min, 10 µM
[3] = primary screen value; head prints only 'DNA Pol'; 90 min, 10 µM

Chain of P. falciparum apicoplast DNA polymerase (Pf-apPOL) (Q8ILY1 entry or part of it): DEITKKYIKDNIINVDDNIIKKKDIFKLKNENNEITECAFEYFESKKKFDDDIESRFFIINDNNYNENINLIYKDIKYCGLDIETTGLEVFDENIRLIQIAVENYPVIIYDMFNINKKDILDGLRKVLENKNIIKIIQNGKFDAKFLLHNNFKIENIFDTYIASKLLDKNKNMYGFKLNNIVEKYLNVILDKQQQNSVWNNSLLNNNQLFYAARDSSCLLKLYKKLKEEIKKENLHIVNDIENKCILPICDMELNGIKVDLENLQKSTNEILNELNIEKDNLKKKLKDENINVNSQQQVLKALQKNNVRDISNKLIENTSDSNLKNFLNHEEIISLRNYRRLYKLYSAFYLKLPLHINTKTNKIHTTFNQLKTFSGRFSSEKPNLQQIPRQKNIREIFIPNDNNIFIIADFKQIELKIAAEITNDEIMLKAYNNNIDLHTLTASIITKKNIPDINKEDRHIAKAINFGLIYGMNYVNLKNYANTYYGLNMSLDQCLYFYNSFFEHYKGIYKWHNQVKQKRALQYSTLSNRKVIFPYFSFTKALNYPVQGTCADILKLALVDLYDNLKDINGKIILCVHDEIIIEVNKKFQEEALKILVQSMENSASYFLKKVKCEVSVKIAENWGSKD

O=[N+]([O-])c1ccc(SCc2ccco2)c2cccnc12 [KU0034480]
% inhibition Apo pol 10' (DRC-1; concentration 2.5; 10'): 15.1764%
% inhibition Apol 90' (DRC-1; concentration 2.5; 90'): 4.148%
% inhibition apPOL 180' (DRC-1; concentration 2.5; 180'): -3.317%
% inhibition Apo pol 10' (DRC-1; concentration 5; 10'): 32.9023%
% inhibition Apol 90' (DRC-1; concentration 5; 90'): 16.0357%
% inhibition apPOL 180' (DRC-1; concentration 5; 180'): 6.603%
% inhibition Apo pol 10' (DRC-1; concentration 10; 10'): 55.3292%
% inhibition Apol 90' (DRC-1; concentration 10; 90'): 36.0729%
% inhibition apPOL 180' (DRC-1; concentration 10; 180'): 23.8373%
% inhibition Apo pol 10' (DRC-1; concentration 20; 10'): 73.1419%
% inhibition Apol 90' (DRC-1; concentration 20; 90'): 49.2841%
% inhibition apPOL 180' (DRC-1; concentration 20; 180'): 26.1748%
% inhibition Apo pol 10' (DRC-1; concentration 40; 10'): 89.7276%
% inhibition Apol 90' (DRC-1; concentration 40; 90'): 77.8644%
% inhibition apPOL 180' (DRC-1; concentration 40; 180'): 65.2989%
% inhibition Apo pol 10' [1]: 92.5619%
% inhibition Apol 90' (DRC-1; concentration 80; 90'): 91.6594%
% inhibition apPOL 180' (DRC-1; concentration 80; 180'): 89.7624%
% inhibition Apo pol 5' (DRC-2; 5'; concentration 2.5): 33%
% inhibition Apo pol 5' (DRC-2; 5'; concentration 5): 33%
% inhibition Apol 40' (DRC-2; 40'; concentration 5): 33%
% inhibition ApPOL 90' (DRC-2; 90'; concentration 40): 75%
% inhibition apPOL 180' (DRC-2; 180'; concentration 40): 75%
% inhibition apPOL 180' (DRC-2; 180'; concentration 80): 75%
% inhibition Apo pol 5' (DRC-2; concentration 2.5; 5'): 33%
% inhibition Apol 40' (DRC-2; concentration 2.5; 40'): 40%
% inhibition ApPOL 90' (DRC-2; concentration 2.5; 90'): 36%
% inhibition apPOL 180' (DRC-2; concentration 2.5; 180'): 26%
% inhibition Apo pol 5' (DRC-2; concentration 5; 5'): 33%
% inhibition Apol 40' (DRC-2; concentration 5; 40'): 33%
% inhibition ApPOL 90' (DRC-2; concentration 5; 90'): 29%
% inhibition apPOL 180' (DRC-2; concentration 5; 180'): 16%
% inhibition Apo pol 5' (DRC-2; concentration 10; 5'): 38%
% inhibition Apol 40' (DRC-2; concentration 10; 40'): 39%
% inhibition ApPOL 90' (DRC-2; concentration 10; 90'): 35%
% inhibition apPOL 180' (DRC-2; concentration 10; 180'): 22%
% inhibition Apo pol 5' (DRC-2; concentration 20; 5'): 47%
% inhibition Apol 40' (DRC-2; concentration 20; 40'): 63%
% inhibition ApPOL 90' (DRC-2; concentration 20; 90'): 62%
% inhibition apPOL 180' (DRC-2; concentration 20; 180'): 53%
% inhibition Apo pol 5' (DRC-2; concentration 40; 5'): 48%
% inhibition Apol 40' (DRC-2; concentration 40; 40'): 72%
% inhibition ApPOL 90' (DRC-2; concentration 40; 90'): 75%
% inhibition apPOL 180' (DRC-2; concentration 40; 180'): 75%
% inhibition Apo pol 5' (DRC-2; concentration 80; 5'): 13%
% inhibition Apol 40' (DRC-2; concentration 80; 40'): 57%
% inhibition ApPOL 90' (DRC-2; concentration 80; 90'): 66%
% inhibition apPOL 180' (DRC-2; concentration 80; 180'): 75%
DNA Pol [2]: 42
DNA Pol [3]: 42

Cc1ccnc(NS(=O)(=O)c2ccc(-n3cccc3)cc2)n1 [KU0034899]
% inhibition Apo pol 10' (DRC-1; concentration 2.5; 10'): 6.567%
% inhibition Apol 90' (DRC-1; concentration 2.5; 90'): 1.285%
% inhibition apPOL 180' (DRC-1; concentration 2.5; 180'): -4.513%
% inhibition Apo pol 10' (DRC-1; concentration 5; 10'): 25.8281%
% inhibition Apol 90' (DRC-1; concentration 5; 90'): 11.3898%
% inhibition apPOL 180' (DRC-1; concentration 5; 180'): 1.685%
% inhibition Apo pol 10' (DRC-1; concentration 10; 10'): 43.5691%
% inhibition Apol 90' (DRC-1; concentration 10; 90'): 23.2373%
% inhibition apPOL 180' (DRC-1; concentration 10; 180'): 9.9045%
% inhibition Apo pol 10' (DRC-1; concentration 20; 10'): 72.9985%
% inhibition Apol 90' (DRC-1; concentration 20; 90'): 50.5873%
% inhibition apPOL 180' (DRC-1; concentration 20; 180'): 29.9217%
% inhibition Apo pol 10' (DRC-1; concentration 40; 10'): 90.805%
% inhibition Apol 90' (DRC-1; concentration 40; 90'): 80.4805%
% inhibition apPOL 180' (DRC-1; concentration 40; 180'): 67.6388%
% inhibition Apo pol 10' [1]: 93.2113%
% inhibition Apol 90' (DRC-1; concentration 80; 90'): 92.1996%
% inhibition apPOL 180' (DRC-1; concentration 80; 180'): 89.3134%
% inhibition Apol 40' (DRC-2; 40'; concentration 80): 59%
% inhibition ApPOL 90' (DRC-2; 90'; concentration 20): 59%
% inhibition Apo pol 5' (DRC-2; concentration 2.5; 5'): 26%
% inhibition Apol 40' (DRC-2; concentration 2.5; 40'): 31%
% inhibition ApPOL 90' (DRC-2; concentration 2.5; 90'): 29%
% inhibition apPOL 180' (DRC-2; concentration 2.5; 180'): 19%
% inhibition Apo pol 5' (DRC-2; concentration 5; 5'): 23%
% inhibition Apol 40' (DRC-2; concentration 5; 40'): 20%
% inhibition ApPOL 90' (DRC-2; concentration 5; 90'): 14%
% inhibition apPOL 180' (DRC-2; concentration 5; 180'): 0.78%
% inhibition Apo pol 5' (DRC-2; concentration 10; 5'): 41%
% inhibition Apol 40' (DRC-2; concentration 10; 40'): 42%
% inhibition ApPOL 90' (DRC-2; concentration 10; 90'): 37%
% inhibition apPOL 180' (DRC-2; concentration 10; 180'): 21%
% inhibition Apo pol 5' (DRC-2; concentration 20; 5'): 49%
% inhibition Apol 40' (DRC-2; concentration 20; 40'): 62%
% inhibition ApPOL 90' (DRC-2; concentration 20; 90'): 59%
% inhibition apPOL 180' (DRC-2; concentration 20; 180'): 48%
% inhibition Apo pol 5' (DRC-2; concentration 40; 5'): 52%
% inhibition Apol 40' (DRC-2; concentration 40; 40'): 73%
% inhibition ApPOL 90' (DRC-2; concentration 40; 90'): 75%
% inhibition apPOL 180' (DRC-2; concentration 40; 180'): 74%
% inhibition Apo pol 5' (DRC-2; concentration 80; 5'): 17%
% inhibition Apol 40' (DRC-2; concentration 80; 40'): 59%
% inhibition ApPOL 90' (DRC-2; concentration 80; 90'): 67%
% inhibition apPOL 180' (DRC-2; concentration 80; 180'): 76%
DNA Pol [2]: 40
DNA Pol [3]: 40
